# Test results as given in patent publication US20200345761A1, “PREVENTIVE AND/OR THERAPEUTIC AGENT FOR DEMENTIA” (MITOS CO., LTD., priority 2017, published 2020).
# Assays:
# [1] = system: Alzheimer-type dementia; conditions: cited from earlier work
# [2] = system: Alzheimer-type dementia patients
# Excerpt: Patients were selected on the basis of the following three criteria.
# (1) Deterioration in the score occurs such that the ADAS-cog score based on formula [70−(MMSE×2.33)] (J. Caro et al., BMC Neurol 2002; 2:6.) or the ADAS-cog score calculated in terms of MMSE (Mini-Mental State Examination) exceeds 10.
# Finally, 11 patients were selected, and treated with H2 gas.
# Since the probability of suffering complications increases as the concentration of lithium in blood increases, the dosage of lithium carbonate was reduced (W. S. Waring, Toxicol Rev 2006; 25:221-230.). The patients of the treatment group were given oral administration of a 200 mg tablet of lithium carbonate (Li2CO3) (Mitsubishi Tanabe Pharma Corporation) twice a day and inhalation of 3% H2 twice a day. The test period was 6 months. As the gas containing H2, H2 gas (3%) containing 21% oxygen was generated using a portable H2 generator (Nishijima/Ecore Gas Hydrogen Generator) (H. Ono et al., J Stroke Cerebrovasc Dis 2017; 26:2587-2594.). […] Since lithium carbonate is used as a therapeutic agent for depression and mania (bipolar disorder), and it was reported that patients who ingested lithium carbonate less likely developed dementia, lithium carbonate was used in this Example.
# The patients were evaluated by a blind method using the ADAS-cog score.
# The ADAS-cog test was conducted every 1 to 2 months. The efficacy of treatment with respect to the ADAS-cog score was determined by comparing the ADAS-cog score at the start of the test with two or three tests during treatment.
# [3] = system: dementia patients; conditions: hydrogen gas about 3 to 4% inhaled 1 hour twice a day, 6-month treatment period, six patients
# Excerpt: Patients (outpatients in Iryohojin Shadanshinwakai Nishijima Byoin (Numazu-shi, Shizuoka)) in whom rapid deterioration (deterioration by 3 or more points over 1 year) in a cognitive function test such as MMSE or ADAS-cog occured although existing four agents for dementia were used over a long period of time, and improvement is not attained by other ordinary treatment methods.
# Patients for whom it is considered difficult to repeatedly inhale hydrogen gas over a long period of time because of severe medical disease, chronic chest disease (chronic obstructive pulmonary disease (COPD), asthma or the like), mouth inflammation or the like.
# Patients for whom it is determined from a score in the ADAS-cog cognitive function test that a therapeutic effect is achieved.
# [4] = inhalation of H2 gas (3%) containing 21% oxygen; cited from earlier work
# [5] = 11 patients including the unresponsive patient, at completion of H2 treatment
smiles,measurement,setting,value
COc1cc2c(cc1OC)C(=O)C(CC1CCN(Cc3ccccc3)CC1)C2 (centres unmarked) [Donepezil],ADAS-cog score of the administration group,[1]; after 6 months,turned back to the initial value
same,Change of ADAS-cog score,[1]; after 6 weeks,−3 points
"[HH] [H2, hydrogen gas]",Average change of ADAS-cog score with respect to the initial score,[2]; [5],−3.4
same,Average change of ADAS-cog score with respect to the worst score,[2]; [5],−8.5
same,Patients whose ADAS-cog score was improved (decreased) from that at the start time,"[2]; at the end of the H2 treatment period, 11 patients",seven
same,"Worst score: B (ADAS-cog), average",[2]; average of 11 patients,39.2
same,"Final score: C (ADAS-cog), average",[2]; average of 11 patients at completion of H2 treatment,30.7
same,Patients with improvement in the ADAS-cog score,"[2]; combination therapy with H2 and lithium, Alzheimer-type dementia patients",10 out of 11
same,Therapeutic effect judged from ADAS-cog score (effective cases),[3],effective in all of the six patients
same,Blood concentration,[4],confirmed to increase
"O=C([O-])[O-].[Li+].[Li+] [lithium, lithium carbonate, reference compound]",Cognitive function (ADAS-cog) with lithium used alone,"[2]; after H2 treatment was stopped, lithium alone",the cognitive function was not improved
